From patent US11629171B2, “Beta-hairpin peptidomimetics” (POLYPHOR AG, priority 2017, dated 2023)
Values after ≈ are worked out from the molar mass of the structure shown. Where a SMILES comes first, the peptide text is derived from it. Bridges are numbered along the chain shown (N, C = ends). Roman numbers before positions name the chains, in order. [ ]: non-standard residue; d: D form. Thr(ol) = C[C@@H](O)[C@H](N)CO; Pen = CC(C)(S)[C@H](N)C(=O)O; Tle = CC(C)(C)[C@H](N)C(=O)O; NMeV = CN[C@H](C(=O)O)C(C)C; Hiv = CC(C)[C@H](O)C(=O)O; dDab = NCC[C@@H](N)C(=O)O; hSer = N[C@@H](CCO)C(=O)O; Dab = NCC[C@H](N)C(=O)O; Dap = NC[C@H](N)C(=O)O

Tests used:
Format in all cases: cell-based
[1] = test system: human red blood cells (hRBC); experiment: Hemolysis; details: red cells of human, 1 h, 200
Procedure, shortened: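 Percent lysis of human red cells was derived from OD540 of the supernatant, referenced to 2% Triton X-100, after a 1 h, 37° C incubation of 20% (v/v) cells with 200 μg/mL peptide.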

[2] = test system: Acinetobacter baumannii DSM 30008; details: DSM 30008
Procedure, shortened: (§1)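 CLSI broth microdilution: inoculum ~10^6 CFU/mL in cation-adjusted Mueller-Hinton II broth, with peptide in serial two-fold dilutions plus Polysorbate 80 (0.002% final). MIC (μg/mL) is the lowest concentration without visible growth after 18-20 hours at 35° C.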

[3] = test system: Escherichia coli ATCC 25922; details: ATCC 25922
Procedure, shortened: as §1

[4] = test system: Acinetobacter baumannii 872842; details: 872842
Procedure, shortened: as §1

Escherichia coli 926415 = details: 926415
Procedure, shortened: as §1

[5] = test system: Enterobacter cloacae 848840; details: 848840
Procedure, shortened: as §1

[6] = test system: Pseudomonas aeruginosa ATCC 27853; details: ATCC 27853
Procedure, shortened: as §1

[7] = test system: Klebsiella pneumoniae 968733; details: 968733
Procedure, shortened: as §1

[8] = test system: Klebsiella pneumoniae SSI #3010; details: SSI #3010
Procedure, shortened: as §1

SMILES	MIC [2]	MIC [3]	MIC [4]	MIC (Escherichia coli 926415)	MIC [5]	MIC [6]	MIC [7]	MIC [8]	Acinetobacter baumannii DSM 30008 MIC [2]	Escherichia coli ATCC 25922 MIC [3]	Pseudomonas aeruginosa ATCC 27853 MIC [6]	Klebsiella pneumoniae SSI #3010 MIC [8]	Hemolysis at 200 μg/mL [1]
CC(C)C[C@@H]1NC(=O)[C@@H](CC(C)C)NC(=O)[C@H](CCN)NC(=O)[C@@H](NC(=O)[C@H](CCN)NC(=O)[C@@H](NC(=O)[C@H](CCN)NC(=O)CC[C@@H]2NC(=O)[C@H](CCN)NC(=O)[C@H](Cc3ccc(O)cc3)NC(=O)[C@@H](NC(=O)[C@@H](N)C(C)C)C(C)(C)SSC[C@@H](C(=O)N[C@@H](CO)C(=O)O)NC(=O)[C@H](C(C)(C)C)NC(=O)[C@H](CO)NC(=O)[C@H](Cc3c[nH]c4ccccc34)NC(=O)[C@H]([C@@H](C)O)NC(=O)[C@@H](CCN)NC2=O)[C@@H](C)O)CCNC(=O)[C@H]([C@@H](C)O)NC(=O)[C@H](CCN)NC(=O)[C@H](CCN)NC1=O [Ex. 54] (I: H-V[Pen]Y[Dab]E[dDab]TWS[Tle]CS-OH / II: [Dab]T[Dab][Dab][Dab][dL]L[Dab][Dab]T; disulfide I:2-I:11; amide I:5-II:N; lactam II:4-II:C)	0.25 µg/mL (≈ 0.103 µM)	0.0625 µg/mL (≈ 0.0257 µM)	0.5 µg/mL (≈ 0.206 µM)	0.5 µg/mL (≈ 0.206 µM)	4 µg/mL (≈ 1.65 µM)	0.25 µg/mL (≈ 0.103 µM)	4 µg/mL (≈ 1.65 µM)	0.25 µg/mL (≈ 0.103 µM)					<1%
CC(=O)N[C@H](C(=O)N[C@H]1CCNC(=O)C[C@@H](C(=O)N[C@@H](CO)C(N)=O)NC(=O)[C@H](C(C)C)NC(=O)[C@H](CO)NC(=O)[C@H](Cc2c[nH]c3ccccc23)NC(=O)CNC(=O)[C@@H](CCN)NC(=O)[C@H](CCC(=O)N[C@@H](CCN)C(=O)N[C@H](C(=O)N[C@@H](CN)C(=O)N[C@H]2CCNC(=O)[C@H]([C@@H](C)O)NC(=O)[C@H](CCN)NC(=O)[C@H](CCN)NC(=O)[C@H](CC(C)C)NC(=O)[C@@H](CC(C)C)NC(=O)[C@H](CCN)NC2=O)[C@@H](C)O)NC(=O)[C@H](CN)NC(=O)[C@H](Cc2ccc(O)cc2)NC1=O)C(C)C [Ex. 346] (I: Ac-V[Dab]Y[Dap]E[dDab]GWSVDS-NH2 / II: [Dab]T[Dap][Dab][Dab][dL]L[Dab][Dab]T; lactam I:2-I:11, II:4-II:C; amide I:5-II:N)			0.125 µg/mL (≈ 0.0532 µM)	0.25 µg/mL (≈ 0.106 µM)	0.125 µg/mL (≈ 0.0532 µM)		0.5 µg/mL (≈ 0.213 µM)		0.0625 µg/mL	0.0625 µg/mL	0.125 µg/mL	0.0625 µg/mL	<1%
CC(=O)N[C@H](C(=O)N[C@H](C(=O)N[C@@H](Cc1ccc(O)cc1)C(=O)N[C@H]1CSSC[C@@H](C(=O)N[C@H](C(=O)N[C@@H](C)C(=O)N[C@@H](CO)C(N)=O)C(C)(C)C)NC(=O)[C@H](Cc2c[nH]c3ccccc23)NC(=O)[C@H]([C@@H](C)O)NC(=O)[C@@H](CCN)NC(=O)[C@H](CCC(=O)N[C@@H](CCN)C(=O)N[C@H](C(=O)N[C@@H](CCN)C(=O)N[C@H]2CCNC(=O)[C@H]([C@@H](C)O)NC(=O)[C@H](CCN)NC(=O)[C@H](CCN)NC(=O)[C@H](CC(C)C)NC(=O)[C@@H](CC(C)C)NC(=O)[C@H](CCN)NC2=O)[C@@H](C)O)NC1=O)[C@@H](C)O)C(C)C [Ex. 178] (I: Ac-VTYCE[dDab]TWC[Tle]AS-NH2 / II: [Dab]T[Dab][Dab][Dab][dL]L[Dab][Dab]T; disulfide I:4-I:9; amide I:5-II:N; lactam II:4-II:C)	0.0625 µg/mL (≈ 0.0258 µM)	0.125 µg/mL (≈ 0.0515 µM)	0.25 µg/mL (≈ 0.103 µM)	0.5 µg/mL (≈ 0.206 µM)	0.25 µg/mL (≈ 0.103 µM)	0.125 µg/mL (≈ 0.0515 µM)	2 µg/mL (≈ 0.824 µM)	0.125 µg/mL (≈ 0.0515 µM)					<1%
CC(=O)N[C@H](C(=O)N[C@H]1CSSC[C@@H](C(=O)N[C@@H](CO)C(N)=O)NC(=O)[C@H](C(C)(C)C)NC(=O)[C@H](CO)NC(=O)[C@H](Cc2c[nH]c3ccccc23)NC(=O)[C@H](CO)NC(=O)[C@@H](CCN)NC(=O)[C@H](CCC(=O)N[C@@H](CCN)C(=O)N[C@H](C(=O)N[C@@H](CN)C(=O)N[C@H]2CCNC(=O)[C@H]([C@@H](C)O)NC(=O)[C@H](CCN)NC(=O)[C@H](CCN)NC(=O)[C@H](CC(C)C)NC(=O)[C@@H](CC(C)C)NC(=O)[C@H](CCN)NC2=O)[C@@H](C)O)NC(=O)[C@H](CO)NC(=O)[C@H](Cc2ccc(O)cc2)NC1=O)C(C)C [Ex. 132] (I: Ac-VCYSE[dDab]SWS[Tle]CS-NH2 / II: [Dab]T[Dap][Dab][Dab][dL]L[Dab][Dab]T; disulfide I:2-I:11; amide I:5-II:N; lactam II:4-II:C)	0.03125 µg/mL (≈ 0.013 µM)	0.03125 µg/mL (≈ 0.013 µM)	0.0625 µg/mL (≈ 0.026 µM)	0.0625 µg/mL (≈ 0.026 µM)	0.125 µg/mL (≈ 0.0521 µM)	0.125 µg/mL (≈ 0.0521 µM)	0.125 µg/mL (≈ 0.0521 µM)	0.125 µg/mL (≈ 0.0521 µM)					2%

Continued, in another order:

MIC [2]	MIC [3]	MIC [4]	MIC (Escherichia coli 926415)	MIC [5]	MIC [6]	MIC [7]	MIC [8]	Acinetobacter baumannii DSM 30008 MIC [2]	Escherichia coli ATCC 25922 MIC [3]	Pseudomonas aeruginosa ATCC 27853 MIC [6]	Klebsiella pneumoniae SSI #3010 MIC [8]	SMILES	Hemolysis at 200 μg/mL [1]
0.0625 µg/mL (≈ 0.0262 µM)	0.0625 µg/mL (≈ 0.0262 µM)	0.125 µg/mL (≈ 0.0524 µM)	0.125 µg/mL (≈ 0.0524 µM)	4 µg/mL (≈ 1.68 µM)	0.125 µg/mL (≈ 0.0524 µM)	0.125 µg/mL (≈ 0.0524 µM)	0.125 µg/mL (≈ 0.0524 µM)					CC(C)C[C@@H]1NC(=O)[C@@H](CC(C)C)NC(=O)[C@H](CCN)NC(=O)[C@@H](NC(=O)[C@H](CCN)NC(=O)[C@H](CO)NC(=O)[C@H](CCN)NC(=O)CC[C@@H]2NC(=O)[C@H](CCN)NC(=O)[C@H](Cc3ccc(O)cc3)NC(=O)[C@@H](NC(=O)[C@@H](O)C(C)C)CSSC[C@@H](C(=O)N[C@H](CO)[C@@H](C)O)NC(=O)[C@H](C(C)(C)C)NC(=O)[C@H](CO)NC(=O)[C@H](Cc3c[nH]c4ccccc34)NC(=O)[C@H](CCO)NC(=O)[C@@H](CCN)NC2=O)CCNC(=O)[C@H]([C@@H](C)O)NC(=O)[C@H](CCN)NC(=O)[C@H](CCN)NC1=O [Ex. 60] (I: H-[Hiv]CY[Dab]E[dDab][hSer]WS[Tle]C[Thr(ol)] / II: [Dab]S[Dab][Dab][Dab][dL]L[Dab][Dab]T; disulfide I:2-I:11; amide I:5-II:N; lactam II:4-II:C)	<1%
0.0625 µg/mL (≈ 0.0259 µM)	0.03125 µg/mL (≈ 0.0129 µM)	0.0625 µg/mL (≈ 0.0259 µM)	0.25 µg/mL (≈ 0.104 µM)	0.0625 µg/mL (≈ 0.0259 µM)	0.125 µg/mL (≈ 0.0518 µM)	0.25 µg/mL (≈ 0.104 µM)	0.03125 µg/mL (≈ 0.0129 µM)					CC(=O)N[C@H](C(=O)N[C@H]1CSSC[C@@H](C(=O)N[C@@H](CO)C(N)=O)NC(=O)[C@H](C(C)(C)C)NC(=O)[C@H](CO)NC(=O)[C@H](Cc2c[nH]c3ccccc23)NC(=O)[C@H](CCN)NC(=O)[C@@H](CCN)NC(=O)[C@H](CCC(=O)N[C@@H](CCN)C(=O)N[C@H](C(=O)N[C@@H](CN)C(=O)N[C@H]2CCNC(=O)[C@H]([C@@H](C)O)NC(=O)[C@H](CCN)NC(=O)[C@H](CCN)NC(=O)[C@H]([C@@H](C)O)NC(=O)[C@@H](CC(C)C)NC(=O)[C@H](CCN)NC2=O)[C@@H](C)O)NC(=O)[C@H]([C@@H](C)O)NC(=O)[C@H](Cc2ccc(O)cc2)NC1=O)C(C)C [Ex. 262] (I: Ac-VCYTE[dDab][Dab]WS[Tle]CS-NH2 / II: [Dab]T[Dap][Dab][Dab][dL]T[Dab][Dab]T; disulfide I:2-I:11; amide I:5-II:N; lactam II:4-II:C)	1%
0.125 µg/mL (≈ 0.054 µM)	0.0625 µg/mL (≈ 0.027 µM)	1 µg/mL (≈ 0.432 µM)	1 µg/mL (≈ 0.432 µM)	0.5 µg/mL (≈ 0.216 µM)	0.125 µg/mL (≈ 0.054 µM)	4 µg/mL (≈ 1.73 µM)	0.25 µg/mL (≈ 0.108 µM)					CN[C@H](C(=O)N[C@H](C(=O)N[C@@H](Cc1ccc(O)cc1)C(=O)N[C@H]1CSSC[C@@H](C(=O)N[C@H](C(=O)N[C@@H](CO)C(N)=O)C(C)C)NC(=O)[C@H](Cc2c[nH]c3ccccc23)NC(=O)[C@H](CCO)NC(=O)[C@@H](CCN)NC(=O)[C@H](CCC(=O)N[C@@H](CCN)C(=O)N[C@H](C(=O)N[C@@H](CCN)C(=O)N[C@H]2CCNC(=O)[C@H]([C@@H](C)O)NC(=O)[C@H](CCN)NC(=O)[C@H](CCN)NC(=O)[C@H](CC(C)C)NC(=O)[C@@H](CC(C)C)NC(=O)[C@H](CCN)NC2=O)[C@@H](C)O)NC1=O)[C@@H](C)O)C(C)C [Ex. 12] (I: H-[NMeV]TYCE[dDab][hSer]WCVS-NH2 / II: [Dab]T[Dab][Dab][Dab][dL]L[Dab][Dab]T; disulfide I:4-I:9; amide I:5-II:N; lactam II:4-II:C)	2%
